In patent publication US10125358B2, “Methods and compounds for increasing threonyl-tRNA synthetase activity” (UNIVERSITY OF VERMONT AND STATE AGRICULTURAL COLLEGE, priority 2012, dated 2018) one finds HIF-1α transcription and HIF-1α protein stabilization data, which are given here for 1 compound.

Entries after “also recorded” stand apart in the source; their conditions may differ.

For the test, the system named is SKOV-3 cells. Description: HIF-1α stabilization in hypoxia (Western blot). It counts as cell-based. As for the experimental part:
After treatments, cells were harvested into sample buffer containing: 0.2 M Tris-HCL, 4% SDS, 4% β-mercaptoethanol, 40% glycerol, 4 μM pyronin Y. Extracts were sheared through a 24-gauge syringe. Samples were separated by 10% SDS-PAGE and transferred to nitrocellulose membrane and probed with rabbit polyclonal anti-TARS (1:500; Santa Cruz Biotechnology, Dallas, Tex.) or monoclonal anti-HIF-1α (BD Transduction Laboratories, [BD Biosciences, San Jose, Calif.]) (Lounsbury, Beddow et al. 1994). Secondary antibodies were HRP-goat-anti-mouse and HRP-goat-anti-rabbit (1:5,000; Jackson Laboratories, Bar Harbor, Me.).
Background: A western blot detects proteins with antibodies after separation by electrophoresis.

Regarding `C[C@@H]1C[C@H](C)C[C@H](C)[C@@H](O)CC(=O)O[C@H]([C@@H]2CC[C@H]2C(=O)O)C/C=C/C=C(/C#N)[C@H](O)[C@@H](C)C1` [BC194], the HIF-1α transcription result (SK-OV3 cells responding to hypoxia) is recorded as “no change in HIF-1α transcription”. Also, the HIF-1α protein stabilization result (hypoxia (2% O2), 6 h) is given as “diminished the levels of HIF-1α protein stabilization; also recorded: reduce HIF-1α stabilization”.
